Laboratory results: paper PMC6706627, “Mapping Interactions of Microbial Metabolites with Human G-Protein-Coupled Receptors” (Cell Host & Microbe, 2019)
pEC50: −log10 of the molar value. Each block holds one molecule with its values, some of them ahead of it. Where a SMILES comes first, the peptide text is derived from it. Bridges are numbered along the chain shown (N, C = ends). [ ]: non-standard residue; d: D form.

What was measured:
[1] = target: T1, brain angiogenesis factor 1 (BAI1) receptor (Homo sapiens, UniProt O14514); test: PathHunter beta-arrestin recruitment assay in a recombinant reporter cell line, dose-response; format: cell-based
T1 construct: gene ADGRB1

KISS1R = KISS1R (Homo sapiens, UniProt Q969F8); test: cell-based; set-up: species or system recombinant GPCR reporter cell lines; PathHunter beta-arrestin recruitment (beta-galactosidase complementation), chemiluminescence, agonist mode, Eurofins DiscoverX
EBI2 = target: T2, EBI2 (Homo sapiens, UniProt P32249); test: cell-based; set-up: species or system recombinant GPCR reporter cell lines; PathHunter beta-arrestin recruitment (beta-galactosidase complementation), chemiluminescence, agonist mode, Eurofins DiscoverX; settings: agonist; read-out: RC50 (the source's name)
T2 construct: gene GPR183

[2] = target: T3, neuromedin receptor 1 (NMU1R) (Homo sapiens, UniProt Q9HB89); test: PathHunter beta-arrestin recruitment assay in a recombinant reporter cell line, dose-response; format: cell-based
T3 construct: gene NMUR1
T3 sequence (Q9HB89 1-426): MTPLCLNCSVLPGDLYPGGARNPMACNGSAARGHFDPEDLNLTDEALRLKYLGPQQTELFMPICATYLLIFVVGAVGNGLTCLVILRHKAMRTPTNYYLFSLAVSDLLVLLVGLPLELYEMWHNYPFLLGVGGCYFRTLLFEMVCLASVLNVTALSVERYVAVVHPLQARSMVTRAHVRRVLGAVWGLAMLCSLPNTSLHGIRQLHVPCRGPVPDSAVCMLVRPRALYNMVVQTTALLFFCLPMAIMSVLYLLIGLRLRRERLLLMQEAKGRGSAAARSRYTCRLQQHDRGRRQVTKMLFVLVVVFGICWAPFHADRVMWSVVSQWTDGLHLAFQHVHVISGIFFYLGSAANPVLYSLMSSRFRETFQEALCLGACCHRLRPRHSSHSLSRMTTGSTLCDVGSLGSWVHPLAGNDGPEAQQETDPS

[3] = target: T4, urotensin 2 receptor (UTR2) (Homo sapiens, UniProt Q9UKP6); test: as above; format: cell-based
T4 construct: gene UTS2R
T4 sequence (Q9UKP6 1-389): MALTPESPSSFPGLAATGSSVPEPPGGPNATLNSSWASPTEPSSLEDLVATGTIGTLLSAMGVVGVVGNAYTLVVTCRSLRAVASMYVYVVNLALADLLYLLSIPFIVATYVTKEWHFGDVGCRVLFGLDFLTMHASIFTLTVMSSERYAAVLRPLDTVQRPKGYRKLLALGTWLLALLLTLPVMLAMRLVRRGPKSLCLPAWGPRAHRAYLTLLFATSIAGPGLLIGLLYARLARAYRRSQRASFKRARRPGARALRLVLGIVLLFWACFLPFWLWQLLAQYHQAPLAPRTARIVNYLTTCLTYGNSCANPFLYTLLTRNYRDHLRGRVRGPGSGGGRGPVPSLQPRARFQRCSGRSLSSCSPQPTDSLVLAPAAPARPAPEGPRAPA

MRGPRX2 = target: T5, MRGPRX2 (Homo sapiens, UniProt Q96LB1); test: cell-based; set-up: species or system recombinant GPCR reporter cell lines; PathHunter beta-arrestin recruitment (beta-galactosidase complementation), chemiluminescence, agonist mode, Eurofins DiscoverX
T5 sequence (Q96LB1 1-330): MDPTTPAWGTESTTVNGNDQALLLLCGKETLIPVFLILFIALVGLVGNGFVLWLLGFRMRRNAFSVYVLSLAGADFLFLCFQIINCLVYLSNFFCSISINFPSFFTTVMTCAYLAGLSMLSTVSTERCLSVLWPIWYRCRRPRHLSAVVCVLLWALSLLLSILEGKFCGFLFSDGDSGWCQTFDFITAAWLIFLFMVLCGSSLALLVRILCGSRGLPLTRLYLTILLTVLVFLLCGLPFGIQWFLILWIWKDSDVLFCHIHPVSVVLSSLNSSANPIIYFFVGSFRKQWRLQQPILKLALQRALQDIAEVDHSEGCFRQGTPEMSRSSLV

PTHR2 = target: T6, PTHR2 (Homo sapiens, UniProt P49190); test: cell-based; set-up: species or system recombinant GPCR reporter cell lines; PathHunter beta-arrestin recruitment (beta-galactosidase complementation), chemiluminescence, agonist mode, Eurofins DiscoverX
T6 construct: gene PTH2R

GPR119 = target: T7, GPR119 (Homo sapiens, UniProt Q8TDV5); test: cell-based; set-up: species or system recombinant GPCR reporter cell lines; PathHunter beta-arrestin recruitment (beta-galactosidase complementation), chemiluminescence, agonist mode, Eurofins DiscoverX
T7 sequence (Q8TDV5 1-335): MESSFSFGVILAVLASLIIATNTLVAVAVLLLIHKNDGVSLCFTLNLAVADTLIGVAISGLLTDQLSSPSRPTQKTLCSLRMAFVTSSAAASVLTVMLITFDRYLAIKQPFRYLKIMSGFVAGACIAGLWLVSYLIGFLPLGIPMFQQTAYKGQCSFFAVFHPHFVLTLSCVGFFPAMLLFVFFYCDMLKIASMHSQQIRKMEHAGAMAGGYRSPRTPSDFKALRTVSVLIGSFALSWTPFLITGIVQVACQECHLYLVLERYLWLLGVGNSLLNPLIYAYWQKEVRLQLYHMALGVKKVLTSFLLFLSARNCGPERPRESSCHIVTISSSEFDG

GPR109B [4] = target: T8, GPR109B (Homo sapiens, UniProt P49019); test: PathHunter beta-arrestin recruitment assay, dose-response of the known agonist; format: cell-based
T8 construct: gene HCAR3
Description: PathHunter beta-arrestin recruitment assay, dose-response of the known agonist on GPR109B | This previously unknown GPR109B agonist elicited a similar GPCR response to 3-hydroxyoctanoic acid

HRH4 = HRH4 (Homo sapiens, UniProt Q9H3N8); test: PathHunter beta-arrestin recruitment assay in a recombinant reporter cell line, commercial standard, dose-response; format: cell-based
FFAR1 = FFAR1 (Homo sapiens, UniProt O14842); test: cell-based; set-up: species or system recombinant GPCR reporter cell lines; PathHunter beta-arrestin recruitment (beta-galactosidase complementation), chemiluminescence, agonist mode, Eurofins DiscoverX
GPR109B [5] = target: T8, GPR109B; test: PathHunter beta-arrestin recruitment assay in a recombinant reporter cell line, dose-response; format: cell-based
OXER1 = OXER1 (Homo sapiens, UniProt Q8TDS5); test: cell-based; set-up: species or system recombinant GPCR reporter cell lines; PathHunter beta-arrestin recruitment (beta-galactosidase complementation), chemiluminescence, agonist mode, Eurofins DiscoverX
PTGIR = PTGIR (Homo sapiens, UniProt P43119); test: cell-based; set-up: species or system recombinant GPCR reporter cell lines; PathHunter beta-arrestin recruitment (beta-galactosidase complementation), chemiluminescence, agonist mode, Eurofins DiscoverX
CRTH2 = target: T9, CRTH2 (Homo sapiens, UniProt Q9Y5Y4); test: cell-based; set-up: species or system recombinant GPCR reporter cell lines; PathHunter beta-arrestin recruitment (beta-galactosidase complementation), chemiluminescence, agonist mode, Eurofins DiscoverX
T9 construct: gene PTGDR2
T9 sequence (Q9Y5Y4 1-395): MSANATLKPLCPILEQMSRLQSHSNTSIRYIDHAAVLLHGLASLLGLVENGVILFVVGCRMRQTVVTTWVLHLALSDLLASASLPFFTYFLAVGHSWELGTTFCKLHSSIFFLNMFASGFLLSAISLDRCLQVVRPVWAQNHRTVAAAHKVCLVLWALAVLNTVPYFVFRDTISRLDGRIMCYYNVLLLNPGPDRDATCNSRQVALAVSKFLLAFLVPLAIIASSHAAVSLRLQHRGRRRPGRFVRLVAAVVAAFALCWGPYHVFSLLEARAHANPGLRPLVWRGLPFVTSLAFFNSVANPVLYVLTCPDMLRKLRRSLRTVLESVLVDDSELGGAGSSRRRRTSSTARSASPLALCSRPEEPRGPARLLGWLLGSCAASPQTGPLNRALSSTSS

T8 sequence (P49019 whole entry): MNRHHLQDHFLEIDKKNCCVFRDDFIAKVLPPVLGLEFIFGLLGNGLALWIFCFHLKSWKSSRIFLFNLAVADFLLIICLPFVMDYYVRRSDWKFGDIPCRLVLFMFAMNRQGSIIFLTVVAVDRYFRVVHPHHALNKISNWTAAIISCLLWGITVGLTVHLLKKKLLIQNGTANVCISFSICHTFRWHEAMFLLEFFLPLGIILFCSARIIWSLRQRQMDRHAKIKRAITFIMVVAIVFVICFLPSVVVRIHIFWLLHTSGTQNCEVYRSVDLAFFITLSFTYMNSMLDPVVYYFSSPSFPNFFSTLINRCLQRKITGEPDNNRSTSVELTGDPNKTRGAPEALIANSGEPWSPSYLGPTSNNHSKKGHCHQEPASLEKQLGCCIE
T1 sequence (O14514 31-1584): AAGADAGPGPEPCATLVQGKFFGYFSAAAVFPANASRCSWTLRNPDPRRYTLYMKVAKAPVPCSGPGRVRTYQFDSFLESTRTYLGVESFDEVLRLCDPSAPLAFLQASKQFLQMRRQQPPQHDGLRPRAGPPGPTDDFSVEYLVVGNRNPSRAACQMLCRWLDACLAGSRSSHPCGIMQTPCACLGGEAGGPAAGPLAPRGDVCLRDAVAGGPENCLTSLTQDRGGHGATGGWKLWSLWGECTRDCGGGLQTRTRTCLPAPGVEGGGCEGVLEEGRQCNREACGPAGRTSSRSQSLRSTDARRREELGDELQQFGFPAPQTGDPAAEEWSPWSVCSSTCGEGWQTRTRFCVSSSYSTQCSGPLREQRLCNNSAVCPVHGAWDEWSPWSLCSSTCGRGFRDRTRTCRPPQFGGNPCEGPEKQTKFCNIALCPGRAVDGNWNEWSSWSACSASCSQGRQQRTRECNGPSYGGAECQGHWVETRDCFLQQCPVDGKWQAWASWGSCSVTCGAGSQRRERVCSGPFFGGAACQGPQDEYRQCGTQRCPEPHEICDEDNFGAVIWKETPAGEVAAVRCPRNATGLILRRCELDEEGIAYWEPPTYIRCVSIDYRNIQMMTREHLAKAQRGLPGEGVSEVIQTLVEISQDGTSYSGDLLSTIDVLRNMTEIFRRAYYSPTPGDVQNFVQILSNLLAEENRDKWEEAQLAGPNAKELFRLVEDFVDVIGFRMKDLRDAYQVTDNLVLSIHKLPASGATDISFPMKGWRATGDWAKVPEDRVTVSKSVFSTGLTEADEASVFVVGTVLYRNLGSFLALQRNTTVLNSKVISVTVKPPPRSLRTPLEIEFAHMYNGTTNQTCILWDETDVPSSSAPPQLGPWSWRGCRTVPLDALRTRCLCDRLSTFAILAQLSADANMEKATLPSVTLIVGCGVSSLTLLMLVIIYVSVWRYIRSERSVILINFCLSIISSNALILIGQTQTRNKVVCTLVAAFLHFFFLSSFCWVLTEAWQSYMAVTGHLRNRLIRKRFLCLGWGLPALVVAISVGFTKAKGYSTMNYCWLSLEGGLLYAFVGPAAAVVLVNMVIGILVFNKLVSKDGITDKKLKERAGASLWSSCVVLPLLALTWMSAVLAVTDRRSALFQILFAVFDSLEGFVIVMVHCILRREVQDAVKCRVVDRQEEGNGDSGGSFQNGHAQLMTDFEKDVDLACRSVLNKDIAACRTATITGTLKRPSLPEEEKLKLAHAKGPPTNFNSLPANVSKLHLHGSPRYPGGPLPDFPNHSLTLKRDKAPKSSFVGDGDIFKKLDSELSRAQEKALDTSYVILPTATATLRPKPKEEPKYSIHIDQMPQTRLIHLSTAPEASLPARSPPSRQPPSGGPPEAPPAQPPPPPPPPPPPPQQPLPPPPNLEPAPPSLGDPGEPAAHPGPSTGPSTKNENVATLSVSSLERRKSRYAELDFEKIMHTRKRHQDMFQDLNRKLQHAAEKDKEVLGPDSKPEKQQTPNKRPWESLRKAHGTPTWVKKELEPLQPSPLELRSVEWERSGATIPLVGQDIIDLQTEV
T6 sequence (P49190 whole entry): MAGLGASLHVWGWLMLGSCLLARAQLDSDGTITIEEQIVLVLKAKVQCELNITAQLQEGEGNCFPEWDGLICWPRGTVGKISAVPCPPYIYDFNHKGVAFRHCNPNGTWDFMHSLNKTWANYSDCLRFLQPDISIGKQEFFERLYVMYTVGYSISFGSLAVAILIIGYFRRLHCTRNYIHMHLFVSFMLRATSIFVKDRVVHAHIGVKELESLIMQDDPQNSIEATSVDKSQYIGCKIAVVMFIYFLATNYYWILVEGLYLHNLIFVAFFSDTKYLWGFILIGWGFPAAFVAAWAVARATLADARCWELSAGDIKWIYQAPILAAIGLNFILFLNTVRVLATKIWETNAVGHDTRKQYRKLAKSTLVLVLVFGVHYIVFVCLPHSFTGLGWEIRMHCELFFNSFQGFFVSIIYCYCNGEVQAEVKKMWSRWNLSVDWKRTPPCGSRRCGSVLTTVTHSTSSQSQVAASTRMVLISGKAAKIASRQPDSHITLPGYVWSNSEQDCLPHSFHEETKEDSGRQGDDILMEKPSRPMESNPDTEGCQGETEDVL
T2 sequence (P32249 whole entry): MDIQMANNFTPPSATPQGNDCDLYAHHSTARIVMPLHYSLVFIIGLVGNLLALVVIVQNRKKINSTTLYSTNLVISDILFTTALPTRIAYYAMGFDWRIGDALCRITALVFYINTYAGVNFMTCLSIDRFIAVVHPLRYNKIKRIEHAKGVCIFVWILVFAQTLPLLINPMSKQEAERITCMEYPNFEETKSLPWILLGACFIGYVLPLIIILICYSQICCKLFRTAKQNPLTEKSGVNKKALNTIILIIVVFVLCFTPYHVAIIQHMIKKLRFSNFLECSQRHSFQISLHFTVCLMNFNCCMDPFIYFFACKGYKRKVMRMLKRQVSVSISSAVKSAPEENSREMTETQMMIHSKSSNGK
Sequence of OXER1 (Q8TDS5 whole entry): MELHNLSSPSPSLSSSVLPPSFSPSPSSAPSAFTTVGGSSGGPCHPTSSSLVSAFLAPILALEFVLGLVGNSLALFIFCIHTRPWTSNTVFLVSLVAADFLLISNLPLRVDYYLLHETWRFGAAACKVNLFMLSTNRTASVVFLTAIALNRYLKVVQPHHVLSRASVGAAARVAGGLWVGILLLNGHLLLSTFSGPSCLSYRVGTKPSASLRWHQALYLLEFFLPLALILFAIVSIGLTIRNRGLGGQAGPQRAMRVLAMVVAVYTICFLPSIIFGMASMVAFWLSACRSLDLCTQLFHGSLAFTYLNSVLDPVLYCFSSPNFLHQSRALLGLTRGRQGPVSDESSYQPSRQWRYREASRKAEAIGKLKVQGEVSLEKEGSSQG
Sequence of PTGIR (P43119 whole entry): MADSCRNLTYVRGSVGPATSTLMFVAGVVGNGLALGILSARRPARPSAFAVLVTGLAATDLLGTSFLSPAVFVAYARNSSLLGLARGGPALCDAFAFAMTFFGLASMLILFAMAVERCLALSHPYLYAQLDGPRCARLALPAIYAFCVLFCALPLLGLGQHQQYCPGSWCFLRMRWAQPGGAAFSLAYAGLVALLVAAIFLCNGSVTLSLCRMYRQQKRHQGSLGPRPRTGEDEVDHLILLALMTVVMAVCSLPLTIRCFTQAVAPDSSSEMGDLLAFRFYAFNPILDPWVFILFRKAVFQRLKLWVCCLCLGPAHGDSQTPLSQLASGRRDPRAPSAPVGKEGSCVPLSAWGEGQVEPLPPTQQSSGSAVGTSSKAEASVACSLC
Sequence of FFAR1 (O14842 whole entry): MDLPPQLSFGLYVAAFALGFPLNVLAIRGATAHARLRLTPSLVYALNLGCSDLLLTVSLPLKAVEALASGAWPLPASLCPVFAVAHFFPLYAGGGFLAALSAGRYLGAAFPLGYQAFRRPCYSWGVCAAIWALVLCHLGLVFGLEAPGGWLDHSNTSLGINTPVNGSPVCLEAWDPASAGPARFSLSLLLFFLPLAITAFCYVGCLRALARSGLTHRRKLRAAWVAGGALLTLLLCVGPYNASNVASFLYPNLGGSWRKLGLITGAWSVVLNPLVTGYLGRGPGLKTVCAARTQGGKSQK
Sequence of KISS1R (Q969F8 whole entry): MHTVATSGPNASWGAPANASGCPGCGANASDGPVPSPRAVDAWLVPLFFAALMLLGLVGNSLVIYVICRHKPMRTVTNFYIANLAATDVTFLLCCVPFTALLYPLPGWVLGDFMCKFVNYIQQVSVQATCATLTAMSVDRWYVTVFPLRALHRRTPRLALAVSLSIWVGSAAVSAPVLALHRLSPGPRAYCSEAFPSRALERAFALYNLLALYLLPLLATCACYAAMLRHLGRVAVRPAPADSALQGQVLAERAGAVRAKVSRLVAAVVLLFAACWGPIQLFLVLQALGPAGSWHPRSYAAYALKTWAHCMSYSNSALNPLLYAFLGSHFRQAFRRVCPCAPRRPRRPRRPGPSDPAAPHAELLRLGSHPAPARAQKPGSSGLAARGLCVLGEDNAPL

Structure (SMILES): CCCCCCC1CC1CCCCCCCC(=O)O (stereo not drawn) [9,10-methylenehexadecanoic acid, cis-9,10-methylenehexadecanoic acid]
pEC50 [1]: 4.96

Structure (SMILES): CC(C)C[C@H](NC(=O)CNC(=O)[C@H](Cc1ccccc1)NC(=O)[C@H](CO)NC(=O)[C@H](CC(N)=O)NC(=O)[C@H](Cc1c[nH]c2ccccc12)NC(=O)[C@H](CC(N)=O)NC(=O)[C@@H](N)Cc1ccc(O)cc1)C(=O)N[C@@H](CCCNC(=N)N)C(=O)N[C@@H](Cc1ccccc1)C(N)=O [Kisspeptin-10]
pEC50 (KISS1R): 7.93

Structure (SMILES): C[C@H](CCCC(C)(C)O)[C@H]1CC[C@H]2[C@@H]3[C@H](O)C=C4C[C@@H](O)CC[C@]4(C)[C@H]3CC[C@]12C [7a,25-Dihydroxycholesterol]
pEC50 (EBI2): 6.72

Structure (SMILES): CCC(C)CCCCCCCCCCC(=O)O (stereo not drawn) [aiC15:0, 12-methyltetradecanoic acid]
pEC50 [2]: 3.90
pEC50 [3]: 3.72

Structure (SMILES): C[C@@H](O)[C@@H]1NC(=O)[C@@H](CCCCN)NC(=O)[C@H](Cc2c[nH]c3ccccc23)NC(=O)[C@H](Cc2ccccc2)NC(=O)[C@H](Cc2ccccc2)NC(=O)[C@H](CC(N)=O)NC(=O)[C@H](CCCCN)NC(=O)[C@@H](NC(=O)[C@@H]2CCCN2)CSSC[C@@H](C(=O)N[C@@H](CCCCN)C(=O)O)NC(=O)[C@H](CO)NC(=O)[C@H](CO)NC(=O)[C@@H](Cc2ccccc2)NC1=O [Cortistatin 14] (H-PCKNFFW[dK]T[dF]SSCK-OH; disulfide 2-13)
pEC50 (MRGPRX2): 6.20

Structure (SMILES): CCCCCCCC/C=C\CCCCCCCC(=O)NCCO [Oleoyl Ethanolamide]
pEC50 (GPR119): 5.76

Structure (SMILES): CCCCCC(O)CC(=O)O (stereo not drawn) [3-hydroxyoctanoic acid]
pEC50 (GPR109B [4]): 3.52

Structure (SMILES): NCCCCCN [cadaverine]
pEC50 (HRH4): 5.96

Structure (SMILES): O=C(O)CCc1ccccc1 [phenylpropanoic acid]
pEC50 (GPR109B [5]): 3.68

Structure (SMILES): CCCCC/C=C\C/C=C\C/C=C\C=C\C(=O)CCCC(=O)O [5-OxoETE]
pEC50 (OXER1): 6.16

Structure (SMILES): CC#CCC(C)[C@H](O)/C=C/[C@@H]1[C@H]2c3cccc(CCCC(=O)O)c3O[C@H]2C[C@H]1O (mixture of isomers) [Beraprost]
pEC50 (PTGIR): 6.51

More lines, now with the values ahead:

pEC50 (PTHR2): 9.07
Structure (SMILES): CCCCC#CCCCCCCCC(=O)OC [TIP-39]

pEC50 (FFAR1): 6.54
Structure (SMILES): O=C(O)CCc1ccc(NCc2cccc(Oc3ccccc3)c2)cc1 [GW9508]

pEC50 (CRTH2): 7.71
Structure (SMILES): CCCCC[C@H](O)/C=C/[C@H]1C(=O)C[C@H](O)[C@@H]1C/C=C\CCCC(=O)O [PGD2]
